US7674464B2, “Intracellular interleukin-1 receptor antagonists” (The University of Tennessee Research Foundation, priority 2004, dated 2010)
Read-outs that look alike come from different tables or passages of the source. Each block holds one substance with its values, some of them ahead of it.

How the values were obtained:
D10.G4.1 T cells = assay: lymphocyte mitogenesis assay: IL-1α-stimulated proliferation of D10.G4.1 T cells; format: cell-based, murine; conditions: peptides added 1 hour before IL-1α (10 ng/ml)
Procedure: An hour prior to the addition of hrIL-1α, the IL-1ra peptides were added to cultures of murine T cell line, D10.G4.1 and ^3H thymidine incorporation was quantitated.
Since sIL-1ra blocks IL-1 stimulation of T cells, the abilities of the IL-1ra peptides of Table 5 to inhibit mitogenesis of murine D10.G4.1 cells in response to IL-1α were assessed by performing lymphocyte mitogenesis assay. Briefly, different concentrations of IL-1ra peptides were added to culture 1 hour prior to addition of IL-1α (10 ng/ml). The results are expressed as mean cpm of quadruplicate determinations corrected for background. The standard error of the mean for each sample tested was 10% or less. None of the peptides disclosed in Table 5 inhibited IL-1α stimulation of proliferation of D10.G4.1 T cells (FIG. 20). Further, the uptake of ^125I IL-1ra peptide with SEQ ID NO: 13 by dermal fibroblasts was investigated. Briefly, the SEQ ID NO: 13 peptide (25 μg in 125 μl 0.125 sodium borate buffer pH 8.5) was labeled with ^125I-Bolton Hunter Reagent (New England Nuclear, Boston, Mass.) according to manufacturer's instructions. The labeled IL-1ra was separated from the free ^125I by passage over a Bio-Gel P-2 (BioRad, Richmond, Calif.) 1 ml column equilibrated and eluted with phosphate buffered saline containing 0.1% gelatin. […]

collagenase (MMP-1) [1] = assay: IL-1β-induced collagenase (MMP-1) production by dermal fibroblasts, ELISA; format: cell-based, human
Procedure: Confluent fibroblast monolayer cultures were treated for 2 hr with IL-1ra peptides and cultured for 48 h with hrIL-1β. Collagenase protein was measured in culture supernatants by ELISA.
(§1) Furthermore, the effect of the IL-1ra peptides on the stimulation of MMP-1 and TIMP expression was examined. Briefly, fibroblasts were seeded in wells of Flacon 3008 multiwell plates (5×10^4 cells/500 μl Maintenance Medium). After 72 h culture, the medium was removed from each well and replaced with Maintenance Medium (450 μl) containing 5% FCS and 25 μl of IL-1ra peptides or hrsIL-1ra peptide being tested. Two hrs later 25 μl IL-1β (100 pg/ml) was added to appropriate wells. Plates were incubated for 48 h, at which time medium was collected from each well. Levels of TIMP and collagenase produced by fibroblasts during culture were measured by specific ELISA techniques as previously described (Postlethwaite et al., 1988).

TIMP-1 = assay: IL-1β-stimulated TIMP-1 production by fibroblasts, ELISA; format: cell-based, human
Procedure: TIMP-1 was measured in the same fibroblast culture supernatants as in FIG. 21.
as §1

PGE2 = assay: IL-1β-induced fibroblast PGE2 synthesis, RIA; format: cell-based, human
Procedure: Confluent fibroblast monolayer cultures were preincubated with IL-1ra peptides for 2 h and then with hrIL-1β for 24 h. PGE2 was quantitated by RIA.
Additionally, since IL-1β stimulates PGE2 synthesis by fibroblasts, the effect of peptides disclosed in Table 5 on the PGE2 production by fibroblasts was examined. Briefly, Maintenance Medium in multi-well plates comprising the fibroblasts that were grown to confluency for 3 days was changed to Maintenance Medium containing 2.5% FCS (450 μl/well). This was followed by addition of IL-1ra peptides or hrsIL-1ra (25 μl aliquots) to culture wells 2 hrs prior to addition of hrIL-1β (100 pg/ml). After an additional 24 h incubation, PGE2 was measured in these culture supernatants. PGE2 was extracted from fibroblast culture supernatants and measured by a previously described radioimmunoassay technique (Ballou et al., 1990; Postlethwaite et al., 1989). It was observed that IL-1ra peptide with SEQ ID NO: 15 inhibited IL-1-induced fibroblast synthesis of PGE2 (FIG. 23). Recombinant IL-1ra (100 ng/ml) inhibited IL-1-induced PGE2 production to a level of 150 pg/ml.

ICAM-1 = assay: IL-1β-induced ICAM-1 expression on human dermal fibroblasts; format: cell-based
Procedure: Confluent fibroblast monolayers were cultured for […] with IL-1ra peptides and then for 24 h with IL-1β. ICAM expression on fibroblast monolayers was then quantitated.
Further, since IL-1 upregulates ICAM-1 expression on a variety of cells including fibroblasts, the ability of the peptides disclosed in Table 5 to inhibit IL-1β induced ICAM-1 expression on human dermal fibroblasts was examined. Briefly, fibroblasts were seeded in wells of flat bottom 96 well tissue culture plates (NUNC, Roskilde, Denmark) (1×10^4 cells […] Maintenance Medium). After 72 h, the culture medium was removed from each well and replaced with 450 μl Maintenance Medium and 25 μl of IL-1ra peptides or hrsIL-1ra (100 ng/ml). After incubation at 37° C. for 2 h in 5% CO2 humidified atmosphere, 25 μl hrIL-1β (100 pg/mL final concentration) was added to wells containing IL-1ra peptides or hrsIL-1ra. Wells with 50 μl PBS served as a negative control. PBS 25 μl+[…] IL-1β (100 pg/ml final concentration) was a positive control. Plates were incubated an additional 24 h, after which medium was removed from each well and the cells were fixed with 100 μl of 3.8% formaldehyde in PBS for 5-7 minutes at room temperature. The cells were rinsed twice with culture medium, and 100 μl of monoclonal mouse anti-ICAM-1 antibody (AMAC, Inc., Westbrook, Me.; diluted 0.2 mg original stock diluted 1:800 in culture medium) was applied to designated wells. The plate was then incubated at 4° C. overnight.
After washing the plate thrice with 300 μl of 0.1% BSA-PBS, 200 μl of secondary antibody, goat anti-mouse IgG antibody-conjugated to horseradish peroxidase (Pierce, Rockford, Ill.) diluted 1:4000 in 1% BSA-PBS, was added to each well and the plate was incubated at room temperature for 2 h. After a final wash with 0.1% BSA-PBS, 100 μl of peroxidase substrate solution (Pierce) containing 2,2′-azino-di[3-ethylbenzthiazoline sulfonate] (Kirkegaard & Perry Laboratories, Inc., Gaithersburg, Md.) was added to each well. This was followed 30-40 minutes later by reading of the optical density (OD) at 405 nm by a Microplate Autoreader (Bio-Tek Instruments, Inc., Winooski, Vt.). The color solution was discarded and the plate was then washed twice with PBS. Finally, the cells were digested with 30 μl of 0.6 M NaOH overnight, and the amount of protein in each well was determined using BCA assay reagents (Pierce). ICAM-1 expression was presented as OD/mg protein. […] The hrsIL-1ra (100 ng/mL) inhibited IL-1β-induced ICAM-1 expression to 6 O.D. units/mg of cellular protein.

collagenase (MMP-1) [2] = assay: IL-1β-induced collagenase (MMP-1) production by dermal fibroblasts, ELISA; format: cell-based, human; conditions: same wells as collagenase assay
type I IL-1R [3] = molecular target: T1, type I IL-1R (Mus musculus, UniProt P13504); assay: [125I] IL-1beta competitive binding to type I IL-1 receptors on EL4 6.1 cells; set-up: IL-1beta from type I IL-1Rs on the EL46.1 cells; endogenous in cells; host or cells: EL4 6.1 (murine T cell line); species or system murine
T1 sequence (P13504 20-576): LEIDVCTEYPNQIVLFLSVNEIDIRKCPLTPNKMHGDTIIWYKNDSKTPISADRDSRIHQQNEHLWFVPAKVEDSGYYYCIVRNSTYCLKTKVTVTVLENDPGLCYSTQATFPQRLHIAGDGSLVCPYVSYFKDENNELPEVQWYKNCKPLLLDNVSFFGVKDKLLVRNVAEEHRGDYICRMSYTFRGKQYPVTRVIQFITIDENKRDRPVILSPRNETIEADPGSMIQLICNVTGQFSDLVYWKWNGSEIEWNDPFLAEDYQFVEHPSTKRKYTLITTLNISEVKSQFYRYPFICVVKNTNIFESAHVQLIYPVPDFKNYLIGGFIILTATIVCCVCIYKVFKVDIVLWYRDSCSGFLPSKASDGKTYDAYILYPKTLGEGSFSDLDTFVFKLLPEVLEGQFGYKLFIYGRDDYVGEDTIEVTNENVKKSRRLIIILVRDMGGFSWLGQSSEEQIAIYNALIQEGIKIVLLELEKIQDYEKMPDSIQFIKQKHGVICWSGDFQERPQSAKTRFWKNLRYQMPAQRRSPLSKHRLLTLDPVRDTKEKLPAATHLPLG
Procedure: IL-1 beta for binding to type I IL-1 receptors on murine cells. EL46.1 cells were incubated at 4° C. in presence of the sodium azide for 2 hr with and without each of the IL-1ra peptides or with soluble human recombinant interleukin 1ra (shrIL-1ra) as a control. Cells were then incubated with [^125I]hrIL-1, transferred to microfuge tubes containing phthalolate oil, centrifuged and free and bound radioactivity determined. Non-specific binding was determined in the presence of 100× excess concentration of cold hrIL-1 beta.
None of the peptides were able to displace [^125I] IL-1beta from type I IL-1Rs on the EL46.1 cells (FIG. 19). Additionally a competitive binding assay was performed in which the IL-1ra peptides were added to the EL4 cells at the same time [^125I] was added. No displacement of [^125I] IL-1 beta was observed from its receptors in the presence of these IL-1ra peptides.

type I IL-1R [4] = molecular target: T1, type I IL-1R; set-up: host or cells: EL4.IL-2 murine thymoma cells; conditions: murine thymoma cell line EL4.IL-2; read-out: affinity (Kp) for type I IL-1R; cited from earlier work
[5] = listed as 60-90 (SEQ ID NO: 15)

inhibition of IL-1-induced collagenase production by fibroblasts (collagenase (MMP-1) [1]): failed to block
Substance: IHGGKMCLSCVKSGDETRLQLEAVNITDLSE (IL-1ra peptides representing the mature form of human sIL-1ra) [IL-1ra 60-90, synthetic peptide, residues 60-90 of IL-1ra]
inhibition of IL-1-stimulated proliferation of D10.G4.1 T cells (D10.G4.1 T cells): did not block
inhibition of IL-1β-induced TIMP-1 production by fibroblasts (TIMP-1): failed to block
inhibition of IL-1-induced fibroblast PGE2 synthesis (PGE2; [5]): blocked
inhibition of IL-1-induced fibroblast PGE2 synthesis (PGE2; listed as IL-1ra peptide 60-90): inhibited
inhibition of IL-1-induced fibroblast PGE2 synthesis (PGE2; listed as SEQ ID NO: 15): inhibited
inhibition of IL-1β-induced ICAM-1 expression on fibroblasts (ICAM-1; [5]): blocked
inhibition of IL-1β-induced ICAM-1 expression on fibroblasts (ICAM-1; listed as IL-1ra peptide 60-90): inhibited
inhibition of IL-1β-induced ICAM-1 expression on fibroblasts (ICAM-1; listed as SEQ ID NO: 15): inhibited the ICAM-1 expression on cultured fibroblasts in a dose dependent manner

concentrations at which IL-1 induced collagenase synthesis was inhibited (collagenase (MMP-1) [1]; dermal fibroblasts, FIG. 21): ≥ 10^−10 M
inhibition of IL-1-induced collagenase production by fibroblasts (collagenase (MMP-1) [1]; listed as 1-35 (SEQ ID NO: 13)): blocked
inhibition of IL-1-induced collagenase production by fibroblasts (collagenase (MMP-1) [1]; listed as IL-1ra peptide 1-35): inhibited
Substance: RPSGRKSSKMQAFRIWDVNQKTFYLRNNQLVAGYL (IL-1ra peptides representing the mature form of human sIL-1ra) [IL-1ra 1-35, synthetic peptide, residues 1-35 of mature human sIL-1ra]
fibroblast growth (counting trypsinized cells in hemocytometer) (collagenase (MMP-1) [2]): unchanged
competition with / displacement of [125I] IL-1beta from type I IL-1Rs (type I IL-1R [3]; EL4 6.1 cells): did not competitively inhibit the binding

displacement of [125I] IL-1 beta from EL4 cells (type I IL-1R [3]; 100× excess): greater than 90%
Substance: hrsIL-1ra: soluble human recombinant interleukin 1ra, used as control [reference compound]
level to which IL-1-induced PGE2 production was inhibited (PGE2; 100 ng/ml): 150 pg/mL
level to which IL-1β-induced ICAM-1 expression was inhibited (ICAM-1; 100 ng/mL): 6 O.D. units/mg of cellular protein
Kd (type I IL-1R [4]): 0.15 nM
